The test system of experiment [1] is Ebolavirus. In words: Antiviral activity against EBOV. Type of experiment: functional, organism-based. The conditions noted are these: Orthoebolavirus.
Experiment [2] deals with SARS-CoV. In words: Antiviral activity against SARS-Cov urbani by neutral red uptake analysis. The conditions noted are these: Severe acute respiratory syndrome-related coronavirus. The class given is functional, organism-based.
A further experiment relates to Sudan ebolavirus. In words: Antiviral activity against SUDV Boniface by high-content image analysis. The class given is functional.
The subject of experiment [3] is Ebolavirus. In words: Antiviral activity against EBOV Kikwit by high-content image analysis. The class given is functional, organism-based. As to conditions: Orthoebolavirus.
Experiment [4] has as its system Marburgvirus. In words: Antiviral activity against MARV musoke by high-content image analysis. Type of experiment: functional, organism-based. As to conditions: Orthomarburgvirus.
For experiment [5], the system named is Middle East respiratory syndrome-related coronavirus. In words: Antiviral activity against MERS-CoV jordan N3 by high-content image analysis. The class given is functional, organism-based.
Experiment [6] deals with dengue virus type 2. In words: Antiviral activity against DENV2 new Guinea by neutral red uptake analysis. Type of experiment: functional, organism-based.
In experiment [7] the test system is Ebolavirus. In words: Antiviral activity against EBOV infected in HMVEC cells. The conditions noted are these: Orthoebolavirus. Type of experiment: functional, organism-based.
The subject of experiment [8] is dengue virus type 2. In words: Antiviral activity against DENV-2 infected in Baby hamster BHK cells assessed as reduction in virus-induced cytopathic effect. The class given is functional, organism-based. (In general: Damage to the host cells serves as the signal in cytopathic effect assays.)
For experiment [9], the system named is Marburgvirus. In words: Antiviral activity against Marburg virus. The class given is functional, organism-based. The conditions noted are these: Orthomarburgvirus.
Experiment [10] concerns Ebolavirus. In words: Antiviral activity against pseudo typed EBOV infected in human HEK293T cells assessed as inhibition of viral growth. The class given is functional, organism-based. The conditions noted are these: Orthoebolavirus, HEK-293T.
The test system of experiment [11] is Marburgvirus. In words: Antiviral activity against MARV infected in human A549 cells assessed as inhibition of viral growth. The conditions noted are these: Orthomarburgvirus. The class given is functional, organism-based.
Experiment [12] concerns Ebolavirus. In words: Antiviral activity against EBOV infected in human A549 cells assessed as inhibition of viral growth. Type of experiment: functional, organism-based. The conditions noted are these: Orthoebolavirus.
The subject of experiment [13] is dengue virus type 2. In words: Antiviral activity against DENV2 infected in human A549 cells at 25 uM incubated for 24 hrs by plaque assay relative to control. Type of experiment: functional.
In experiment [14] the test system is Ebolavirus. In words: Antiviral activity against EBOV infected in Vero E6 cells assessed as reduction in virus titer incubated for 5 days by immunofocus assay. The class given is functional, organism-based. The conditions noted are these: Orthoebolavirus, Vero C1008, 120 h.
The subject of experiment [15] is Ebolavirus. In words: Antiviral activity against pseudo typed EBOV infected in human A549 cells assessed as inhibition of viral growth. Type of experiment: functional, organism-based. As to conditions: Orthoebolavirus.
Experiment [16] has as its system SARS-CoV. In words: Antiviral activity against SARS-CoV assessed as reduction in virus-induced cytopathic effect. The conditions noted are these: Severe acute respiratory syndrome-related coronavirus. The class given is functional, organism-based.

In brackets after ≈: the same amount, converted by molar mass.

Broadly, the EC50 is the concentration needed to bring the measured effect to its halfway point. In turn, `C=CCc1ccc(O)c(OC)c1` [EUGENOL] showed an EC50 in the experiment with Ebolavirus [1] of 1.3 µM. As for `Nc1ncnc2c([C@@H]3N[C@H](CO)[C@@H](O)[C@H]3O)c[nH]c12`, the EC50 with SARS-CoV [2] was found to be 57.7 µM; in the experiment on Sudan ebolavirus, 3.4 µM; with Ebolavirus [3] it was 11.8 µM; in the experiment on Marburgvirus [4], 4.4 µM; in experiment [5], 68.4 µM; with dengue virus type 2 [6] it was 32.8 µM. `CCC(CC)COC(=O)[C@H](C)N[P@](=O)(OC[C@H]1O[C@@](C#N)(c2ccc3c(N)ncnn23)[C@H](O)[C@@H]1O)Oc1ccccc1` gave an EC50 in the experiment on Ebolavirus [7] of 0.06 µM.

Take `CN[C@@H]1[C@@H](O)[C@H](O[C@@H]2[C@@H](O)[C@H](O[C@H]3O[C@H]([C@H](C)O)[C@@H](O)[C@H](O)[C@H]3N)[C@@H](N)C[C@H]2N)OC[C@]1(C)O`: the EC50 in the experiment on dengue virus type 2 [8] stood at 3 µg/mL (≈ 6.04 µM). As a reminder, the IC50 is the concentration that inhibits the measured activity by half. `C#CN(CCCC1(C)N=N1)C(=O)[C@]12CCC(C)(C)C[C@H]1C1=CC[C@@H]3[C@@]4(C)CCC(=O)C(C)(C)[C@@H]4CC[C@@]3(C)[C@]1(C)CC2=O`: the half-inhibitory concentration (IC50) in the experiment on Marburgvirus [9] was found to be 5.52 µM; in the experiment with Ebolavirus [10], 0.467 µM. For the compound `O=c1oc2c(O)c(O)cc3c(=O)oc4c(O)c(O)cc1c4c23` [ELLAGIC ACID], the results for the half-maximal inhibitory concentration (IC50) with Marburgvirus [11] and in the experiment with Ebolavirus [12] were 6.4 µM and 1.4 µM, respectively. Consider `C[C@H](CC[C@H](O)[C@](C)(O)CO)[C@H]1CC[C@@]2(C)C3=CC[C@H]4C(C)(C)C(=O)CC[C@]4(C)C3=CC[C@]12C` [GANODERMANONTRIOL], for which the Activity with dengue virus type 2 [13] amounted to 25%. Usually IC90 stands for the point of the concentration-response curve where the effect stands at 90%. `NC(=O)c1nc(F)cnc1O`: in the experiment on Ebolavirus [14], the IC50 is 67 µM. The IC90 in the experiment with Ebolavirus [14] (time 5 day) came out at 110 µM.

Regarding `C=C(C)O[C@@H]1[C@@H](OC(C)=O)[C@H](NC(=O)[C@]23CCC(C)(C)C[C@H]2C2=CC[C@@H]4[C@@]5(C)CCC(=O)C(C)(C)[C@@H]5CC[C@@]4(C)[C@]2(C)CC3=O)O[C@H](COC(C)=O)[C@@H]1OC(C)=O`, the results for the IC50 in the experiment with Marburgvirus [9] and in the experiment on Ebolavirus [15] were 2.29 µM and 0.0592 µM, respectively. Turning to `O[C@H]1[C@H]2c3cc4c(cc3CN3CCC(=C[C@@H]1O)[C@H]23)OCO4` [LYCORINE], in the experiment on SARS-CoV [16], the EC50 came to 0.0157 µM.

(Values after ChEMBL document CHEMBL5096148, “Natural Products with Potential to Treat RNA Virus Pathogens Including SARS-CoV-2” (J Nat Prod, 2021).)
